Entries after “also recorded” stand apart in the source; their conditions may differ.
What was measured:
[1] = test system: epithelial sodium channel (ENaC); assay: Short-circuit current, basal ENaC activity in mCCD cells; type: cell-based, mouse; details: mCCD cell monolayer, Ussing chamber
Source text: The mouse cortical collecting duct (mCCD) cell line is a continuous, high resistance cell line that has the characteristics of the principal cells that line the kidney distal tubules. In this segment of the tubules, a transport protein, the epithelial sodium channel (ENaC), is responsible for the reabsorption of sodium from the kidney filtrate and the return of this ion to the bloodstream. As the concentration of sodium increases in the blood, the increased osmotic concentration will cause a compensatory movement of water from cells all over the body into the blood and an increase in blood volume and blood pressure. ENaC is an important transport protein and its function plays a major role in the regulation of whole body salt and water balance. Increases in the activity of ENaC can cause hypertension and many hypertension medications target the intracellular signaling pathways that culminate in the activation of ENaC. For example, ENaC is inhibited by the diuretic, amiloride.
The mCCD cell line was grown in tissue culture media consisting of Dulbecco's Minimal Essential media (DMEM):Hams F12 supplemented with 5% fetal bovine serum and penicillin (100 U/ml) and streptomycin ([…]). Cultured cells in both flasks and on Transwells had the media changed thrice weekly. […] In the current Example, the basal activity of ENaC in the cells is the parameter that is monitored.

[2] = test system: Wpk rat model (TMEM67-/-) of hydrocephalus; assay: Head dimensions in homozygous Wpk rat model of hydrocephalus; type: in vivo; details: homozygous Wpk rats
Protocol: The effectiveness of SI 113 was tested in a genetic model of hydrocephalus, the Wpk rat model. In this model, the homozygous animals (TMEM67−/−) carry a single point mutation in TMEM67, one of a complex of proteins involved in the formation of the primary cilium. The homozygous affected animals have severe hydrocephalus and renal cystic disease. They typically survive for 18-21 days after birth, and the developing hydrocephalus can be monitored by measuring the head size in a manner analogous to measuring head sizes in human children.
In FIG. 1, the head sizes in both the horizontal and vertical dimensions are shown.

[3] = test system: PCP-R porcine choroid plexus cell line; assay: Short-circuit current, TRPV4 agonist-stimulated transepithelial ion transport in PCP-R cells; type: cell-based; details: PCP-R cells in Ussing chamber, pretreatment at t=-10 minutes, agonist at t=0
Protocol: PCP-R (porcine choroid plexus, high resistance) cell line was grown to confluence on permeable Transwell supports. The PCP-R cell line is grown in tissue culture media consisting of Dulbecco's Minimal Essential media (DMEM) supplemented with 10% fetal bovine serum and penicillin (100 U/ml) and streptomycin ([…]). Cultured cells in both flasks and on Transwells had the media changed thrice weekly. After attaining a high resistance phenotype (days 10-12 after seeding on the Transwells), the cultures were removed from the plastic supports and mounted in an Ussing chamber for electrophysiological measurements (short-circuit current (SCC)) of net transepithelial ion transport. A negative deflection is indicative of anion absorption (CSF to blood) and/or cation secretion (blood to CSF). GSK1016797 is an agonist of TRPV4, an osmo- and mechano-sensitive channel which, when stimulated, allows Ca^2+ to enter the cells. The increased intracellular Ca^2+ secondarily stimulates Ca^2+-sensitive channels. In the case of the PCP-R cells, this process stimulates Ca^2+-sensitive K^+ channels causing the secretion of K^+ and, secondarily, water into the cerebrospinal fluid. […] All cultures were stimulated with GSK1016797 at time t=0.

[4] = test system: heterozygous Wpk rat model of hydrocephalus; assay: MRI of lateral ventricular volumes in heterozygous Wpk rat model; type: in vivo; details: heterozygous Wpk rats, 8 mg/kg BW i.p. daily for 8 days, versus vehicle, P=0.039 Mann-Whitney
Protocol: FIG. 4 depicts MRI quantification of the effects of SI113 on hydrocephalus in the heterozygous Wpk rat model. The bars represent the difference in volumes of the lateral ventricles measured at postnatal (P) day 7 and P15. The volumes were measured by MRI before treatment with vehicle or SI 113 (8 mg/kg BW; i.p. daily) and again after 8 days of treatment. The difference in the volume for each of the animals was calculated and the averages ±SEM are shown in the bar graph. The number of animals in each study is noted as n. Approximately equal numbers of male and female animals were used.
The Wpk rat model is unique in that the genetic defect causes a severe hydrocephalus in the homozygous affected animals (see FIG. 1) and a mild hydrocephalus in the heterozygous animals (see FIG. 4). The heterozygous animals live for at least year. […] In this model the hydrocephalus is not severe enough to change head dimensions so the effect of the SI113 on the hydrocephalus was measured using MRI. […] Volumes of interest on lateral ventricles were determined from threshold based image segmentation of native cerebrospinal fluid contrast, and images were quantified for lateral ventricular volumes using Analyze 12.0. The MRIs were conducted on each animal on day 7 and day 15 and the differences in lateral ventricular volumes were calculated (FIG. 4).

Row | Compound | short-circuit current (SCC), transepithelial sodium transport via ENaC [1] | head dimensions of treated hydrocephalic animals compared with wild-type animals ([2]; after treatment post-natal day 7 to day 15) | head dimensions (horizontal and vertical) of hydrocephalic animals ([2]; treatment post-natal day 7 to day 15, versus vehicle, *p=0.009, # p=0.03, 1-tailed t-test) | response (short-circuit current) to TRPV4 agonist GSK1016797 [3] | hydrocephalus, difference in lateral ventricular volumes between P7 and P15 by MRI [4]
1 | OCCNc1nc(NCCc2ccccc2)c2cnn(/C=C/c3ccccc3)c2n1 [SI 113, 2-({1-(2-phenylethenyl)-4-[(2-phenylethy)amino]-1H-pyrazolo[3,4-d]pyrimidin-6-yl}amino)ethanol] | caused a decrease in the SCC | not statistically different than the wild-type animals | significantly decreased the head dimensions | completely blocked | statistically significant difference; also recorded: effectively decreased the hydrocephalus
2 | N=C(N)NC(=O)c1nc(Cl)c(N)nc1N [amiloride, reference compound] | strongly inhibited | – | – | – | –
